# Test results published in patent US7098007B2, “Cloning and functional assays of Xenopus ATR” (California Institute of Technology, priority 2001, dated 2006).
# Entries after “also recorded” stand apart in the source; their conditions may differ.
# What was measured:
# [1] = biological target: ATR (Homo sapiens, UniProt Q13535); conditions: cited from earlier work
# [2] = biological target: ATM (Homo sapiens, UniProt Q13315); conditions: cited from earlier work
# [3] = biological target: T1, Xatr (Xenopus laevis, UniProt Q9DE14); test: Xatr kinase assay: phosphorylation of model substrate PHAS-I by anti-Xatr immunoprecipitates; assay type: biochemical; design: Xatr was immunoprecipitated from Xenopus egg extracts using an anti-Xatr antibody; from tissue; host or cells: Xenopus egg extracts (immunoprecipitate with anti-peptide 1617-1630 antibody); conditions: 0.04, 0.2, 1 or 5 mM caffeine; anti-Xatr immunoprecipitates from egg extracts; autoradiography
# T1 sequence (Q9DE14 whole entry Y191C/P249S/H2082P/D2362G, the tested form may be a part): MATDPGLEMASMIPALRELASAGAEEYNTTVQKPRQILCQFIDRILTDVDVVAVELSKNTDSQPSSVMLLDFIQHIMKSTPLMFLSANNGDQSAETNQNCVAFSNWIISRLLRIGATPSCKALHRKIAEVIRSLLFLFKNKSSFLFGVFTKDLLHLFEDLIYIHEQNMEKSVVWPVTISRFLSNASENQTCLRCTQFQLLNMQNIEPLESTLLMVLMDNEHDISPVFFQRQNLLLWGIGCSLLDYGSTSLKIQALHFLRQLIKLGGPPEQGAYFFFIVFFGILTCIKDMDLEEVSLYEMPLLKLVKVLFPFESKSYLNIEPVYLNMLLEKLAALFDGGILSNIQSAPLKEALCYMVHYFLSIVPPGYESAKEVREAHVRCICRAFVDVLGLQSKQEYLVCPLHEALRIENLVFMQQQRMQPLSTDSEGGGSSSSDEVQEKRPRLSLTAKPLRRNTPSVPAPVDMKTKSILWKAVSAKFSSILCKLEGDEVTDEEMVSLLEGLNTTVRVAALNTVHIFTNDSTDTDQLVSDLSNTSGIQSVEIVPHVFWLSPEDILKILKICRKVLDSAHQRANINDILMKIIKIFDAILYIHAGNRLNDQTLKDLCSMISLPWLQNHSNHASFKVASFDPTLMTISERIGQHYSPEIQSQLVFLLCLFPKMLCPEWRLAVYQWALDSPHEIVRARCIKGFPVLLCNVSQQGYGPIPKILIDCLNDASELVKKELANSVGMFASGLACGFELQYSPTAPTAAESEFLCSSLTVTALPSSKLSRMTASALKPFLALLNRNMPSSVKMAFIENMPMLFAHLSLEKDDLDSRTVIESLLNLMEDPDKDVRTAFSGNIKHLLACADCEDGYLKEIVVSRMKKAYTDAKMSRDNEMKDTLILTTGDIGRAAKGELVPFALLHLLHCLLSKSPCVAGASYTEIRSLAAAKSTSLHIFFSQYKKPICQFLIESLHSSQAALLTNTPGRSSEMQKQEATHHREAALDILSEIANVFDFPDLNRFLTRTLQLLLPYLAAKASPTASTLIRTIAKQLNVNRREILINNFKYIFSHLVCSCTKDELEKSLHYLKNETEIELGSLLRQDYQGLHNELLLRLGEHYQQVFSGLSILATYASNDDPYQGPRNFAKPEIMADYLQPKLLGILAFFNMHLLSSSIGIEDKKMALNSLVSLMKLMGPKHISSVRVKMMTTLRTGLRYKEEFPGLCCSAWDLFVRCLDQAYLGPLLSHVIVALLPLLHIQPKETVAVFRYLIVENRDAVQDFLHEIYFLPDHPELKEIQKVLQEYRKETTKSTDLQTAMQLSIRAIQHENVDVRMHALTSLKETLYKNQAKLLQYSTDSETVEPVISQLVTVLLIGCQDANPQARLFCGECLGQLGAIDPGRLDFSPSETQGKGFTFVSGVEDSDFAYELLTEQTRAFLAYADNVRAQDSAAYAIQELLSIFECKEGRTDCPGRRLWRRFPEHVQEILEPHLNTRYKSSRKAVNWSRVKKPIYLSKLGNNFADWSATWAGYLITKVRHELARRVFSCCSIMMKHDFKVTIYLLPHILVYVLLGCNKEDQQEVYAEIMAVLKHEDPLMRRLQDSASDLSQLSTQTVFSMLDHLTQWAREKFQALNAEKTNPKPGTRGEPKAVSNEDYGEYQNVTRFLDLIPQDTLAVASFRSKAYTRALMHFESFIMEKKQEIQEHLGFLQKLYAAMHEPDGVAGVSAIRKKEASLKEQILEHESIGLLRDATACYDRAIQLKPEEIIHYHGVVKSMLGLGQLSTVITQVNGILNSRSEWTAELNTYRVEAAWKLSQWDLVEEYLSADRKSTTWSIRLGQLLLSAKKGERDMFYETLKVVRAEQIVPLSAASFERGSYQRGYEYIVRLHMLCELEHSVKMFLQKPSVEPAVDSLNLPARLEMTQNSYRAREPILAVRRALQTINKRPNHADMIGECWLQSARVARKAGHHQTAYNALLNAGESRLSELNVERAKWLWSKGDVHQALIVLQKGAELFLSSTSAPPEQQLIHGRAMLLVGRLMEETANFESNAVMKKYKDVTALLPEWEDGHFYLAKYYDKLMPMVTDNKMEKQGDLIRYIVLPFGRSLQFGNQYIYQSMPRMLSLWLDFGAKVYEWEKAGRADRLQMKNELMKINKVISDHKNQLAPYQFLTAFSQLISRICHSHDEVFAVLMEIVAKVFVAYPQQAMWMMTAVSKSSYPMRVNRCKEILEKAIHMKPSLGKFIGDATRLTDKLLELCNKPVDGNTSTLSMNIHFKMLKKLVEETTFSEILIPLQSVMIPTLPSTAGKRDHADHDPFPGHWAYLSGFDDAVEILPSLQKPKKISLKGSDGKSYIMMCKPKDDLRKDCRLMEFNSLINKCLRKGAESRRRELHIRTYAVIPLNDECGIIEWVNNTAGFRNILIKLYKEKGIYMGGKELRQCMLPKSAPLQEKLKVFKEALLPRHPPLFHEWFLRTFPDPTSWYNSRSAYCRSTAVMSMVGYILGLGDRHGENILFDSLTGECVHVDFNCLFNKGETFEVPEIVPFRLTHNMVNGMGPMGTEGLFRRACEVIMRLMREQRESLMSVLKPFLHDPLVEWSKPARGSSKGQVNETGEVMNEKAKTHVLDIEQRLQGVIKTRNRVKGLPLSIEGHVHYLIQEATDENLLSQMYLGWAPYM
# Protocol: Given the conservation of the PIK-related kinase domain among ATR homologs, we characterized the kinase activity of Xatr. Xatr was immunoprecipitated from Xenopus egg extracts using an anti-Xatr antibody (as described in Example 1).
# To further assess the relationship between Xatr and other PIK-related kinases, we next assessed the effects of caffeine on the kinase activity of Xatr. […] Briefly, kinase assays were performed by incubating anti-Xatr immunoprecipitates (lanes 1–5) or control immunoprecipitates (lanes 6–10) with the model substrate PHAS-I, in the presence of 0 (lanes 1 and 6), 0.04 mM (lanes 5 and 10), 0.2 mM (lanes 4 and 9), 1 mM (lanes 3 and 8) or 5 mM (lanes 2 and 7) caffeine. Proteins were subjected to SDS-PAGE and visualized by silver staining (bottom panel). Phosphorylation of PHAS-I was detected by autoradiography (middle panel).
# METHODS: Polyclonal antibodies generated against an Xatr peptide ([…], SEQ ID NO: 11), as shown in Example 1, were used to immunoprecipitate Xatr. Immunoprecipitation and kinase assays were performed using standard methods, and as previously shown (Guo and Dunphy (2000) Mol. Biol Cell 11: 1535–1546).
# [4] = system: Xchk1; test: Phosphorylation of Xchk1 in Xenopus egg extracts; assay type: biochemical
# Protocol: To address this question, we first measured phosphorylation of Xchk1 in egg extracts undergoing a checkpoint delay in response to a block to DNA replication. […] Briefly, ^35S-labeled wildtype or mutant Xchk1 (T314A, S344A, T314A+S344A, S356A, S365A, S356A+S365A, 4AQ) protein was incubated with egg extracts in the presence or absence of aphidicolin. ^35S labeled proteins were isolated and analyzed by gel electrophoresis for a phosphorylation-dependent shift in mobility.
# Using the S344-p antibodies, we examined in more detail the phosphorylation of Xchk1 expressed in egg extracts. […] Following the incubation, the recombinant proteins were reisolated with glutathione agarose and detected by immunoblot with anti-GST antibodies and anti-S344-p antibodies.
# Following 90 minute incubation, the preparation was diluted in 400 μL of dilution buffer (10 mM HEPES at pH 7.5, 150 mM NaCl, 20 mM β-glycerolphosphate, 2.5 mM EGTA, and 0.1% CHAPS). Recombinant Xchk1 proteins were isolated with glutathione agarose, washed, eluted, subjected to SDS-PAGE, and immunoblotted with either anti-GST antibodies (Santa Cruz Biotechnology) or anti-S344-p antibodies.
# [5] = biological target: TOR (Homo sapiens, UniProt P42345); conditions: cited from earlier work
# [6] = biological target: T1, Xatr; test: Binding of Xatr to single-stranded and double-stranded DNA cellulose in egg cytosol; design: we examined the association of Xatr with both single and double-stranded DNA in Xenopus egg extracts; from tissue; host or cells: Xenopus interphase egg cytosol; conditions: 50 μL cytosol, with or without APH
# Protocol: In order to functionally characterize Xatr, we examined the association of Xatr with both single and double-stranded DNA in Xenopus egg extracts, under a variety of conditions. […] Briefly, control cellulose, single-stranded DNA cellulose, or double-stranded DNA cellulose were incubated with 50 μL of cytosol in the presence or absence of APH or PCL. Washed cellulose beads were boiled in gel loading buffer, and half of this was subjected to immunoblot analysis using an Xatr polyclonal antibody prepared in Example 1.
# Preparation of DNA cellulose: M13 DNA (single-stranded DNA) was prepared according to the manufacturers instructions (Amersham). pBS plasmids (pBluescript—double stranded DNA) were prepared by a standard alkaline lysis procedure. 1 mg of M13 DNA or pBluescript DNA in 1 mL of TE buffer (10 mM Tris-HCL, 1 mM EDTA at pH 8.0) was incubated with 0.3 grams of cellulose for 5 minutes at 23° C. Following incubation, the preparation was lyophilized for 18 hours. The resulting lyophilized powder was resuspended in 20 volumes of TE, incubated at 4° C. for 24 hours, washed with TE, and frozen at −70° C. until use. Naked control cellulose was prepared under the same conditions, however, the addition of either single or double stranded DNA was omitted.
# Binding of Xatr to DNA cellulose: 25–100 μL of DNA cellose was incubated with 50–500 μL of interphase egg cytosol for 40 minutes at 23° C. […]
Compound,"kinase activity of ATR, sensitivity to caffeine [1]","kinase activity of ATM, sensitivity to caffeine [2]",kinase activity of Xatr (phosphorylation of PHAS-I) [3],"half-maximal dose for inhibition of Xchk1 phosphorylation, compared with inhibition of Xatr kinase activity ([4]; egg extracts treated with aphidicolin, compared with FIG. 3D)","phosphorylation of Xchk1 in response to unreplicated DNA ([4]; egg extracts treated with aphidicolin, increasing concentrations of caffeine)","kinase activity of TOR, sensitivity to caffeine [5]",interaction of Xatr with DNA cellulose [6],"phosphorylation of wildtype Xchk1 at Ser 344 (anti-S344-p immunoblot) ([4]; 100 μg/mL aphidicolin and sperm nuclei, 90 minutes, interphase extract)","phosphorylation of wildtype Xchk1 (phosphorylation-dependent shift in mobility) ([4]; 35S-labeled Xchk1 in egg extracts, presence versus absence of aphidicolin)"
Cn1c(=O)c2c(ncn2C)n(C)c1=O [caffeine],sensitive,sensitive,significant decrease in phosphorylation of PHAS-I; also recorded: sensitive,approximately the same half-maximal dose,inhibited,sensitive,–,–,–
C[C@@]1(CO)[C@H](O)CC[C@@]2(C)[C@H]1CC[C@H]1C[C@@H]3C[C@@]12CC[C@]3(O)CO [aphidicolin],–,–,–,–,–,–,occurs in the presence or the absence,phosphorylated at position 344,phosphorylated
